Measured values taken from patent US10669272B2, “Substituted naphthyridinone compounds useful as T cell activators” (BRISTOL-MYERS SQUIBB COMPANY, priority 2018, dated 2020).
Like-named read-outs stand apart in the source and are kept apart here.

Key:
human DGKα = target: T1, human DGKα (Homo sapiens, UniProt P23743); test: DGKα LIPGLO assay (extruded liposome substrate), in vitro DGK inhibition; assay type: biochemical; settings: liposome (LIPGLO) assay; read-out: DGKa LIPGLO IC50
T1 construct: TVMV protease cleavage site (C); Hexa-His (C); made in house; host or cells: Sf9 insect cells (baculovirus, Bac-to-Bac)
T1 sequence (P23743 with tags, fused parts or gaps): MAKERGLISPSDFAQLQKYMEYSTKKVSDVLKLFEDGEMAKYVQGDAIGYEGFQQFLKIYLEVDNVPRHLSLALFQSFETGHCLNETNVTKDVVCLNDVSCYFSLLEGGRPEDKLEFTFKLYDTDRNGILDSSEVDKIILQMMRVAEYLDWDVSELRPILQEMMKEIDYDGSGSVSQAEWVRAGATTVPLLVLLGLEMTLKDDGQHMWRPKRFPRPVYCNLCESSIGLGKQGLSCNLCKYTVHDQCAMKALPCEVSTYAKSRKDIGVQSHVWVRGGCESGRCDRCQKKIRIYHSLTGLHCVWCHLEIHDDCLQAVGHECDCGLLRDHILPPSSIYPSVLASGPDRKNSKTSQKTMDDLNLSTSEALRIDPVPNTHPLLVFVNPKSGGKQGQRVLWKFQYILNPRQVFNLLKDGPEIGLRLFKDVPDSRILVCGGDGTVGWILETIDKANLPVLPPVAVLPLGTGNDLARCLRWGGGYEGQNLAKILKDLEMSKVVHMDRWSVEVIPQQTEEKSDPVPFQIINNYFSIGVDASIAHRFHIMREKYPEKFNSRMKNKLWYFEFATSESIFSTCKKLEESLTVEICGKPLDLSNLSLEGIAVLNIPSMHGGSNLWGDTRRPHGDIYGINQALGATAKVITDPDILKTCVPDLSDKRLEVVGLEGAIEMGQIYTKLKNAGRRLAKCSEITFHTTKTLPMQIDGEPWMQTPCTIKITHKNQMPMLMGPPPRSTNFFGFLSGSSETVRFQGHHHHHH

human DGKζ = target: T2, human DGKζ (Homo sapiens, UniProt Q13574); test: DGKζ LIPGLO assay (extruded liposome substrate), in vitro DGK inhibition; assay type: biochemical; settings: liposome (LIPGLO) assay; read-out: DGKz LIPGLO IC50
T2 construct: TVMV protease cleavage site (C); Hexa-His (C); made in house; host or cells: Sf9 insect cells (baculovirus, Bac-to-Bac)
T2 sequence (Q13574 with tags, fused parts or gaps isoform Q13574-4): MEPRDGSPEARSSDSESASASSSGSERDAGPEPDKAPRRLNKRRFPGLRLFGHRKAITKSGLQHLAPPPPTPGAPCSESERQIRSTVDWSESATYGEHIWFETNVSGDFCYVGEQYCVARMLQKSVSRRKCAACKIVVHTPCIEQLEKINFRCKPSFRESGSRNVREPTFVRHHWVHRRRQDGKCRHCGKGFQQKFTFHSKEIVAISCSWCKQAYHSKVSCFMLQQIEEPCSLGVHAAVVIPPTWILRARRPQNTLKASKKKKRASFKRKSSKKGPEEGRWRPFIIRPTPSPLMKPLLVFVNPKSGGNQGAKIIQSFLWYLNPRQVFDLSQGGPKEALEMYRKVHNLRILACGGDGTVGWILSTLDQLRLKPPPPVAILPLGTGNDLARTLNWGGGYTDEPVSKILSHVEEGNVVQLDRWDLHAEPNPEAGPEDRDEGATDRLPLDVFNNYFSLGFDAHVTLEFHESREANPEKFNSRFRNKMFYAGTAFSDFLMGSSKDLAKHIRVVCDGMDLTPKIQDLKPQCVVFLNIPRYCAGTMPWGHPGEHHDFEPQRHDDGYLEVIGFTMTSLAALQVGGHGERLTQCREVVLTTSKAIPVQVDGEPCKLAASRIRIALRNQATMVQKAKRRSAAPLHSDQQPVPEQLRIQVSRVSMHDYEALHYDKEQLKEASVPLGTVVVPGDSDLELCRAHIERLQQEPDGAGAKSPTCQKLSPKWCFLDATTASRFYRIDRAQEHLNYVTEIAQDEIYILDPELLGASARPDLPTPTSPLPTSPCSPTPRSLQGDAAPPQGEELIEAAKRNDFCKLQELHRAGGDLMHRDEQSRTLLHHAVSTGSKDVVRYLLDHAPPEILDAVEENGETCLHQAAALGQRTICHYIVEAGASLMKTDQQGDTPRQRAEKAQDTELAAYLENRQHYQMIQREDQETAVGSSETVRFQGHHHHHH

Human venous whole blood = test: Human whole blood IFN-γ assay; assay type: cell-based; settings: human whole blood, normalized to 3 μM reference compound with anti-CD3 plus anti-CD28 as 100% activation, read-out: INFg Whole Blood Normalized Agonist EC50;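 note: blood from healthy donors exposed to compound for 1 h before stimulation with anti-CD3 and anti-CD28 at 1 µg/mL each, IFN-γ quantified in supernatant by AlphaLISA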

SMILES | IC50 (human DGKα) [µM] | IC50 (human DGKζ) [µM] | EC50 (Human venous whole blood; Homo sapiens, 24 h) [µM] | EC50 (Human venous whole blood) [µM]
CCc1ccc(C(c2cccc(Cl)c2)N2C[C@H](C)N(c3cc(=O)n(C)c4ccc(C#N)nc34)C[C@H]2C)nc1 (single isomer, unassigned) [Example 355] | 0.89 | 0.74 | 0.34 | –
CCC(c1cc(Cl)cc2c1OCC2)N1C[C@H](C)N(c2cc(=O)n(C)c3ccc(C#N)nc23)C[C@H]1C (single isomer, unassigned) [Example 356] | > 250 | 0.42 | 20 | –
C[C@@H]1CN(c2cc(=O)n(C)c3ccc(C#N)nc23)[C@@H](C)CN1C(c1ccc(F)cc1)C1CCCCO1 (single isomer, unassigned) [Example 358] | 9 | 21 | 1 | –
C[C@@H]1CN(c2cc(=O)n(C)c3ccc(C#N)nc23)[C@@H](C)CN1C(c1cccc(F)c1)c1ccccn1 (single isomer, unassigned) [Example 379] | 2 | 2.1 | 1.1 | –
Cc1ccc(C(c2ccc(C)c(Cl)c2)N2C[C@H](C)N(c3cc(=O)n(C)c4ccc(C#N)nc34)C[C@H]2C)nc1 (single isomer, unassigned) [Example 380] | 3.1 | 1.6 | – | 0.63
C[C@@H]1CN(c2cc(=O)n(C)c3ccc(C#N)nc23)[C@@H](C)CN1C(c1ccc(F)cc1)c1cccnn1 (single isomer, unassigned) [Example 383] | 5.6 | 13 | 3.2 | –
C[C@@H]1CN(c2cc(=O)n(C)c3ccc(C#N)nc23)[C@@H](C)CN1C(c1ccc(F)cc1)C1CCOCC1 (single isomer, unassigned) [Example 387] | 1.5 | 3.1 | 3.6 | –
Cc1ccc(C(c2cccc(F)c2)N2C[C@H](C)N(c3cc(=O)n(C)c4ccc(C#N)nc34)C[C@H]2C)cn1 (single isomer, unassigned) [Example 390] | 17 | 7.4 | – | 2.6
C[C@@H]1CN(c2cc(=O)n(C)c3ccc(C#N)nc23)[C@@H](C)CN1C(c1ccc(F)cc1)c1cncnc1 (single isomer, unassigned) [Example 393] | 1.6 | 7.1 | – | 3.5
C[C@@H]1CN(c2cc(=O)n(C)c3ccc(C#N)nc23)[C@@H](C)CN1C(c1ccc(F)cc1)c1cncnc1 (single isomer, unassigned) [Example 394] | 42 | 49 | – | 18
Cc1ccc(C(c2cccc(F)c2)N2C[C@H](C)N(c3cc(=O)n(C)c4ccc(C#N)nc34)C[C@H]2C)cn1 (single isomer, unassigned) [Example 395] | 48 | 7.8 | – | 6.3
C[C@@H]1CN(c2cc(=O)n(C)c3ccc(C#N)nc23)[C@@H](C)CN1C(c1ccc(Cl)cc1)c1ccncn1 (single isomer, unassigned) [Example 396] | 1.3 | 3.6 | 0.19 | –
Cc1nccc(C(c2ccc(F)cc2)N2C[C@H](C)N(c3cc(=O)n(C)c4ccc(C#N)nc34)C[C@H]2C)n1 (single isomer, unassigned) [Example 401] | 7.8 | 4.5 | – | 0.93
Cc1ncc(C(c2ccc(F)cc2)N2C[C@H](C)N(c3cc(=O)n(C)c4ccc(C#N)nc34)C[C@H]2C)cn1 (single isomer, unassigned) [Example 406] | 2.4 | 2.8 | 11 | –
C[C@@H]1CN(c2cc(=O)n(C)c3ccc(C#N)nc23)[C@@H](C)CN1C(c1ccc(F)cc1)c1ccnc(C(C)(C)C)n1 (single isomer, unassigned) [Example 408] | 7.5 | 0.8 | 0.8 | –
C[C@@H]1CN(c2cc(=O)n(C)c3ccc(C#N)nc23)[C@@H](C)CN1C(c1ccc(F)cc1)c1ccnc(C(C)(C)C)n1 (single isomer, unassigned) [Example 409] | 5.3 | 0.053 | – | 0.43
C[C@@H]1CN(c2cc(=O)n(C)c3ccc(C#N)nc23)[C@@H](C)CN1C(c1ccc(F)cc1)c1cncc(F)c1 (single isomer, unassigned) [Example 415] | 35 | 19 | 16 | –
Cc1ccc(C(c2cncc(F)c2)N2C[C@H](C)N(c3cc(=O)n(C)c4ccc(C#N)nc34)C[C@H]2C)cc1 (single isomer, unassigned) [Example 416] | 21 | 14 | – | 5.2
CC[C@@H]1CN(c2cc(=O)n(C)c3ccc(C#N)nc23)[C@@H](C)CN1C(c1ccc(F)cc1)c1ccnc(C)n1 (single isomer, unassigned) [Example 418] | 1.5 | 0.13 | – | 0.28
CCC(c1ccc(OC(F)(F)F)cc1F)N1C[C@H](C)N(c2cc(=O)n(C)c3ccc(C#N)nc23)C[C@H]1CC (single isomer, unassigned) [Example 421] | 7.8 | 1.8 | – | 2.6
Cc1c(F)ccc(C(C)N2C[C@H](C)N(c3cc(=O)n(C)c4ccc(C#N)nc34)C[C@H]2C)c1Cl (single isomer, unassigned) [Example 433] | 79 | 0.24 | 1.3 | –
CC(c1ccc(OC(F)(F)F)cc1)N1C[C@H](C)N(c2cc(=O)n(C)c3ccc(C#N)nc23)C[C@H]1C (single isomer, unassigned) [Example 435] | 1.1 | 4.9 | – | 2.5
CCC(c1ccc(OC(F)(F)F)cc1F)N1C[C@H](C)N(c2cc(=O)n(C)c3ccc(C#N)nc23)C[C@H]1C (single isomer, unassigned) [Example 441] | 1.5 | 2.4 | – | 7.9
CC(c1ccc(OC(F)(F)F)cc1F)N1C[C@H](C)N(c2cc(=O)n(C)c3ccc(C#N)nc23)C[C@H]1C (single isomer, unassigned) [Example 442] | 1.4 | 1.8 | – | 7.5
C[C@@H]1CN(c2cc(=O)n(C)c3ccc(C#N)nc23)[C@@H](C)CN1C(c1cccc(F)c1)c1cccc2c1OCCCO2 (single isomer, unassigned) [Example 445] | 40 | 0.42 | 2.6 | –
Cc1ccnc(C(c2ccc(Cl)cc2)N2C[C@H](C)N(c3cc(=O)n(C)c4ccc(C#N)nc34)C[C@H]2C)c1 (single isomer, unassigned) [Example 448] | 0.66 | 0.66 | – | 1.1
Cc1ccc(C(c2cccc3c2OCCCO3)N2C[C@H](C)N(c3cc(=O)n(C)c4ccc(C#N)nc34)C[C@H]2C)nc1 (single isomer, unassigned) [Example 451] | 24 | 0.53 | – | 7.6

Stronger by IC50 (human DGKα), values ahead:

IC50 (human DGKα) [µM] | IC50 (human DGKζ) [µM] | SMILES | EC50 (Human venous whole blood; Homo sapiens, 24 h) [µM] | EC50 (Human venous whole blood) [µM]
0.21 | 1.1 | Cc1ccc(C(c2ccc(C#N)cc2)N2C[C@H](C)N(c3cc(=O)n(C)c4ccc(C#N)nc34)C[C@H]2C)nc1 (single isomer, unassigned) [Example 361] | – | 1.1
0.27 | 0.77 | Cc1ccc(C(c2ccc(Cl)cc2)N2C[C@H](C)N(c3cc(=O)n(C)c4ccc(C#N)nc34)C[C@H]2C)nc1 (single isomer, unassigned) [Example 365] | – | 0.36
0.22 | 2.5 | C[C@@H]1CN(c2cc(=O)n(C)c3ccc(C#N)nc23)[C@@H](C)CN1C(c1ccc(Cl)cc1)c1ccccn1 (single isomer, unassigned) [Example 382] | – | 2.6
0.31 | 0.25 | CCC(c1ccc(OC(F)(F)F)cc1F)N1C[C@H](C)N(c2cc(=O)n(C)c3ccc(C#N)nc23)C[C@H]1CC (single isomer, unassigned) [Example 420] | – | 0.15
0.12 | 0.089 | CC[C@@H]1CN(c2cc(=O)n(C)c3ccc(C#N)nc23)[C@@H](C)CN1C(c1ccc(Cl)cc1)c1ccccn1 (single isomer, unassigned) [Example 422] | – | 0.22
0.027 | 0.17 | CC[C@@H]1CN(c2cc(=O)n(C)c3ccc(C#N)nc23)[C@@H](C)CN1C(c1ccc(Cl)cc1)c1ccccn1 (single isomer, unassigned) [Example 423] | – | 0.74
0.29 | 37 | [2H]C(C)(c1ccc(F)cc1)N1C[C@H](C)N(c2c(F)c(=O)n(C)c3ccc(C#N)nc23)C[C@H]1C (single isomer, unassigned) [Example 424] | – | 16
0.065 | 0.81 | CC(c1ccc(OC(F)(F)F)cc1)N1C[C@H](C)N(c2cc(=O)n(C)c3ccc(C#N)nc23)C[C@H]1C (single isomer, unassigned) [Example 436] | – | 0.44
0.081 | 0.32 | CCC(c1ccc(OC(F)(F)F)cc1F)N1C[C@H](C)N(c2cc(=O)n(C)c3ccc(C#N)nc23)C[C@H]1C (single isomer, unassigned) [Example 440] | – | 1
0.23 | 0.54 | Cc1ccc(C(c2ccc(C)cn2)N2C[C@H](C)N(c3cc(=O)n(C)c4ccc(C#N)nc34)C[C@H]2C)cc1 (single isomer, unassigned) [Example 454] | 0.47 | –
0.23 | 1 | Cc1ccnc(C(c2ccc(F)cc2)N2C[C@H](C)N(c3cc(=O)n(C)c4ccc(C#N)nc34)C[C@H]2C)c1 (single isomer, unassigned) [Example 456] | – | 1.1
0.14 | 1.1 | Cc1ccc(C(c2ccc(C)cn2)N2C[C@H](C)N(c3cc(=O)n(C)c4ccc(C#N)nc34)C[C@H]2C)cc1 (single isomer, unassigned) [Example 457] | – | 0.59
